The results in this text go back to US12612412B2, “Antiviral heterocyclic compounds” (Enanta Pharmaceuticals, Inc., priority 2021, dated 2026).

Each structure is given as a SMILES string.

The subject of assay [1] is genotype A, "Long" strain RSV. The experiment in a line: RSV-A assay (CPE protection in Hep-2 cells, ATPlite readout). The assay is classed as cell-based, Human respiratory syncytial virus (HRSV). Conditions: human respiratory syncytial virus, genotype A “Long” strain RSV, MOI 0.1, CPE protection, read-out: Human RSV-A (“Long”). The method, boiled down:
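Hep-2 cells (8,000/well) were treated with 2-fold serial compound dilutions in duplicate and infected with RSV at MOI 0.1. After 5 days, protection from cytopathic effect was measured as cell viability by ATPlite luminescence, and EC50 values were derived.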
(In ATP-based viability assays light output follows the ATP content of the culture.)

Assay [2] relates to recombinant HMPV CAN97-83 containing eGFP (MPV-GFP1). As to the kind of experiment: HMPV antiviral assay Method-A (MPV-GFP1 eGFP fluorescence in Vero E6 cells). As to conditions: human metapneumovirus, Vero C1008, 120 h, read-out: HMPV EC50. Type of assay: cell-based, Human metapneumovirus (HMPV). As to the method:
HMPV antiviral activity was evaluated using a recombinant version of HMPV CAN97-83 engineered to contain the coding sequence for enhanced green fluorescence protein (eGFP) in the 3′ end of the virus genome (MPV-GFP1, ViraTree). Vero E6 cells ([…]) were seeded at a density of 12,000 cells/100 μL/well into 96-well cell plates one day prior to the assay. On the day of screening, the cell culture medium was aspirated from the wells and cells were washed twice with serum-free Eagle's Modified Essential Medium (EMEM, ATCC #) containing 1% penicillin-streptomycin (Invitrogen) (SF-EMEM). Cell washes were performed by dispensing 100 μL SF-EMEM per well and immediately aspirating the wash medium from the well. Following the second wash step, serum-free OptiMEM (Invitrogen, Cat No.) (SF-OptiMEM) containing 0.5 μg/mL TPCK-Trypsin (VENDOR) and 1% penicillin-streptomycin was added to the cells at 50 μL/well. Compounds were added into the 96-well plates using a JANUS automated liquid handling system (VENDOR). Compounds were initially diluted 1:50 into an intermediate 96-well plate containing SF-OptiMEM prior to transfer to the assay plate (25 μL/well). Each of the test compounds were tested in duplicate wells at final concentrations starting from 8 μM or 2 μM using ½ stepwise dilutions for a total of 8 points. Virus infection was performed by preparing a working stock of MPV-GFP1 at a multiplicity of infection (MOI) equal to 0.05/25 μL and aliquoting 25 μL of virus inoculum to the compound and positive control wells. SF-OptiMEM was added (25 μL/well) to the appropriate wells to serve as a virus-free negative control for the assay. The final DMSO concentration of all wells is 0.5%. Plates were incubated at 32° C., 5% CO2 for 5 days.
After 5 days incubation, eGFP fluorescence intensity was measured at (X) […] wavelength using a Spectramax i3× plate reader (VENDOR). Percent viral inhibition was calculated using the following equation: y=[…]
Where XQ is the fluorescence intensity measured in a well containing recombinant MPV-GFP1-infected, compound-treated cells and XP is the average fluorescence intensity measured in the wells containing untreated cells infected with recombinant virus. EC50 values were then calculated by non-linear regression using a four parameter curve logistic equation. The curve fit model employed was XLFit Dose Response One Site Model 200: y=(A+(B/(1+((x/C)^D))))
Where A is the minimum y value, B is the maximum y value, C is the log EC50 value, and D is the slope factor. […] EC50 ranges are as follows: A<0.5 μM; B>0.5 μM.

With `COc1cc(C(=O)NC[C@](O)(c2cc3c(c(-c4ccc(F)c(Cl)c4)n2)OC[C@]3(C)C(N)=O)C(F)(F)F)cc2sc(C3CC3)nc12` [Example 19], the EC50 in assay [1] is below 200 nM; in assay [2], below 500 nM.

As to `COc1cc(C(=O)NC[C@](O)(c2cc3c(c(-c4ccc(F)cc4)n2)OC[C@]3(C)C(N)=O)C(F)(F)F)cc2cc(C3CC3)c(CO)nc12` [Example 166], the results for the EC50 in assay [1] and in assay [2] were below 200 nM and above 500 nM, respectively.

Take `Cc1cnc2c(Nc3ccc(C)nn3)cc(C(=O)NC[C@](O)(c3cc4c(c(-c5ccc(F)cc5)n3)OC[C@]4(C)C(N)=O)C(F)(F)F)cc2c1` [Example 113]: the EC50 in assay [1] is below 200 nM; in assay [2] it was below 500 nM.

Regarding `COc1cc(C(=O)NC[C@](O)(c2cc3c(c(-c4ccc(F)cc4)n2)OC[C@]3(C)C(N)=O)C(F)(F)F)cc2cn[nH]c12` [Example 108], the EC50 was below 200 nM in assay [1] and above 500 nM in assay [2].

As to `C[C@]1(C(N)=O)COc2c1cc([C@@](O)(CNC(=O)c1cc(F)c3nc(N)sc3c1)C(F)(F)F)nc2-c1ccc(F)c(F)c1` [Example 308], the EC50 in assay [1] was below 200 nM; in assay [2], below 500 nM.

For `C[C@]1(C(N)=O)COc2c1cc([C@@](O)(CNC(=O)c1ccc3nn(C4CC4)cc3c1)C(F)(F)F)nc2-c1ccc(F)cc1` [Example 170], the values for the EC50 in assay [1] and in assay [2] were below 200 nM and below 500 nM, respectively.

Consider `COc1cc(C(=O)NC[C@](O)(c2cc3c(c(-c4ccc(F)cc4)n2)OC[C@]3(C)C(N)=O)C(F)(F)F)cc2ccnnc12` [Example 6], for which the EC50 is below 200 nM in assay [1] and below 500 nM in assay [2].

With `C[C@]1(C(N)=O)COc2c1cc([C@@](O)(CNC(=O)c1ccc3nc(NC(=O)CN)sc3c1)C(F)(F)F)nc2-c1ccc(F)cc1` [Example 152], the EC50 in assay [1] was below 200 nM; in assay [2], above 500 nM.

On to `COc1cc(C(=O)NC[C@](O)(c2cc3c(c(-c4ccc(F)c(Cl)c4)n2)OC[C@]3(C)C(N)=O)C(F)(F)F)cc2cc(C)nnc12` [Example 10], for which the EC50 in assay [1] was below 200 nM; in assay [2] it was below 500 nM.

As to `Cc1cnc2c(NC(=O)N3CCCC3)cc(C(=O)NC[C@](O)(c3cc4c(c(-c5ccc(F)cc5)n3)OC[C@]4(C)C(N)=O)C(F)(F)F)cc2c1` [Example 226], the figures for the EC50 in assay [1] and in assay [2] were below 200 nM and above 500 nM, respectively.

In the case of `Cc1cc2cc(C(=O)NC[C@](O)(c3cc4c(c(-c5ccc(F)cc5)n3)OC[C@]4(C)C(N)=O)C(F)(F)F)cc(O)c2nc1C` [Example 74], the EC50 in assay [1] was below 200 nM; in assay [2] it was below 500 nM.

For `CCc1cc2cc(C(=O)NC[C@](O)(c3cc4c(c(-c5ccc(F)cc5)n3)OC[C@]4(C)C(N)=O)C(F)(F)F)cc(OC)c2nc1C` [Example 174], the EC50 in assay [1] was below 200 nM; in assay [2] it was above 500 nM.

`COc1cc(C(=O)NC[C@](O)(c2cc3c(c(-c4ccc(F)c(Cl)c4)n2)OC[C@]3(C)C(N)=O)C(F)(F)F)cn2cc(C3CC3)nc12` [Example 59]: the EC50 was below 200 nM in assay [1] and below 500 nM in assay [2].

With `CC(C)n1cc2cc(C(=O)NC[C@](O)(c3cc4c(c(-c5ccc(F)cc5)n3)OC[C@]4(C)C(N)=O)C(F)(F)F)ccc2n1` [Example 169], the EC50 is below 200 nM in assay [1] and above 500 nM in assay [2].

Take `C[C@]1(C(N)=O)COc2c1cc([C@@](O)(CNC(=O)c1ccc(OC[C@H](O)C(F)(F)F)c(OC3CC3)c1)C(F)(F)F)nc2-c1ccc(F)cc1` [Example 135]: the values for the EC50 in assay [1] and in assay [2] were below 200 nM and above 500 nM, respectively.

Consider `C[C@]1(C(N)=O)COc2c1cc([C@@](O)(CNC(=O)c1ccc3nc(C4CC4)cn3c1)C(F)(F)F)nc2-c1ccc(F)cc1` [Example 51], for which the values for the EC50 in assay [1] and in assay [2] were below 200 nM and below 500 nM, respectively.

As for `C[C@]1(C(N)=O)COc2c1cc([C@@](O)(CNC(=O)c1cc(F)c3nn(C(F)F)cc3c1)C(F)(F)F)nc2-c1ccc(F)c(Cl)c1` [Example 45], the EC50 in assay [1] is below 200 nM; in assay [2] it was below 500 nM.

Take `COc1cc(C(=O)NC[C@](O)(c2cc3c(c(-c4ccc(F)c(Cl)c4)n2)OC[C@]3(C)C(N)=O)C(F)(F)F)cn2cc(C(F)F)nc12` [Example 65]: the EC50 in assay [1] is below 200 nM; in assay [2], above 500 nM.

Consider `C[C@]1(C(N)=O)COc2c1cc([C@@](O)(CNC(=O)c1cc(Cl)c3nn(C4CC4)cc3c1)C(F)(F)F)nc2-c1ccc(F)cc1` [Example 84], for which the EC50 in assay [1] is below 200 nM; in assay [2] it was below 500 nM.

Turning to `C[C@]1(C(N)=O)COc2c1cc([C@@](O)(CNC(=O)c1cc(NC(=O)NC3CC3)c3ncc(Cl)cc3c1)C(F)(F)F)nc2-c1ccc(F)cc1` [Example 218], the EC50 is below 200 nM in assay [1] and below 500 nM in assay [2].

For the compound `Cc1cnc2c(Nc3ccc(C4CC4)nn3)cc(C(=O)NC[C@](O)(c3cc4c(c(-c5ccc(F)cc5)n3)OC[C@]4(C)C(N)=O)C(F)(F)F)cc2c1` [Example 114], the EC50 was below 200 nM in assay [1] and below 500 nM in assay [2].

Take `CCNc1nc2ccc(C(=O)NC[C@](O)(c3cc4c(c(-c5ccc(F)cc5)n3)OC[C@]4(C)C(N)=O)C(F)(F)F)cc2s1` [Example 139]: the EC50 in assay [1] is below 200 nM; in assay [2] it was above 500 nM.

With `C[C@]1(C(N)=O)COc2c1cc([C@@](O)(CNC(=O)c1cc(NC(=O)NC3CC3)c3ncc(Cl)cc3c1)C(F)(F)F)nc2-c1ccc(F)c(Cl)c1` [Example 220], the values for the EC50 in assay [1] and in assay [2] were below 200 nM and above 500 nM, respectively.

Consider `C[C@]1(C(N)=O)COc2c1cc([C@@](O)(CNC(=O)c1cc(NC(=O)N3CCC3)c3ncc(Cl)cc3c1)C(F)(F)F)nc2-c1ccc(F)cc1` [Example 222], for which the EC50 in assay [1] was below 200 nM; in assay [2] it was above 500 nM.

Consider `C[C@]1(C(N)=O)COc2c1cc([C@@](O)(CNC(=O)c1cc(Cl)c3nn(C(F)F)cc3c1)C(F)(F)F)nc2-c1ccc(F)cc1` [Example 42], for which the figures for the EC50 in assay [1] and in assay [2] were below 200 nM and below 500 nM, respectively.

In the case of `COc1cc(C(=O)NC[C@](O)(c2cc3c(c(-c4ccc(F)cc4)n2)OC[C@]3(C)C(N)=O)C(F)(F)F)cc2cc(CF)c(C)nc12` [Example 147], the EC50 was below 200 nM in assay [1] and below 500 nM in assay [2].

As to `Cn1cc2cc(C(=O)NC[C@](O)(c3cc4c(c(-c5ccc(F)cc5)n3)OC[C@]4(C)C(N)=O)C(F)(F)F)cc(OC3CC3)c2n1` [Example 27], the values for the EC50 in assay [1] and in assay [2] were below 200 nM and below 500 nM, respectively.

Regarding `CCn1cc2cc(C(=O)NC[C@](O)(c3cc4c(c(-c5ccc(F)cc5)n3)OC[C@]4(C)C(N)=O)C(F)(F)F)ccc2n1` [Example 168], the EC50 in assay [1] was below 200 nM; in assay [2] it was below 500 nM.

With `C[C@]1(C(N)=O)COc2c1cc([C@@](O)(CNC(=O)c1cc(Cl)c3ncc(C4CC4)cc3c1)C(F)(F)F)nc2-c1ccc(F)cc1` [Example 72], the EC50 was below 200 nM in assay [1] and below 500 nM in assay [2].

Regarding `C[C@]1(C(N)=O)COc2c1cc([C@@](O)(CNC(=O)c1ccc3nc(C(F)F)sc3c1)C(F)(F)F)nc2-c1ccc(F)cc1` [Example 141], the EC50 was below 200 nM in assay [1] and above 500 nM in assay [2].

As for `Cc1nc2c(OC3CC3)cc(C(=O)NC[C@](O)(c3cc4c(c(-c5ccc(F)cc5)n3)OC[C@]4(C)C(N)=O)C(F)(F)F)cc2s1` [Example 80], the figures for the EC50 in assay [1] and in assay [2] were below 200 nM and below 500 nM, respectively.

As for `CCc1cc(C(=O)NC[C@](O)(c2cc3c(c(-c4ccc(F)cc4)n2)OC[C@]3(C)C(N)=O)C(F)(F)F)cc2cn[nH]c12` [Example 102], the EC50 in assay [1] is below 200 nM; in assay [2] it was below 500 nM.

Turning to `C[C@]1(C(N)=O)COc2c1cc([C@@](O)(CNC(=O)c1cc(F)c3nc(N)sc3c1)C(F)(F)F)nc2-c1ccc(Cl)c(F)c1` [Example 305], the EC50 was below 200 nM in assay [1] and below 500 nM in assay [2].

On to `COc1cc(C(=O)NC[C@](O)(c2cc3c(c(-c4ccc(F)cc4)n2)OC[C@]3(C)C(N)=O)C(F)(F)F)cc2cn(C3CC3)nc12` [Example 24], for which the figures for the EC50 in assay [1] and in assay [2] were below 200 nM and below 500 nM, respectively.

`[2H]C([2H])([2H])c1cc(C(=O)NC[C@](O)(c2cc3c(c(-c4ccc(F)cc4)n2)OC[C@]3(C)C(N)=O)C(F)(F)F)cc2cn[nH]c12` [Example 128]: the EC50 was below 200 nM in assay [1] and below 500 nM in assay [2].
